Measured values taken from US20240279281A1, “Peptide Inhibitors of Interleukin-23 Receptor” (Janssen Pharmaceutica NV, priority 2023, published 2024).
Starred links: 1 amine or outer side, 2 acyl side, 3 side chain; linkers in the order of their positions; H or OH if unused. Positions of bridges follow the written chain, without caps; N, C: chain ends. Non-standard residues stand in square brackets, D forms with d. Residues, ends and D or L forms follow the SMILES beside them. Groups on a side chain read outwards from the residue. *: point of attachment. Trp(7-(3-AcNH-Ph)) = CC(=O)Nc1cccc(-c2cccc3c(C[C@H](N)C(=O)O)c[nH]c23)c1; X4 = O=C([C@H](Cc1ccc2cc(-c3ccc(N4CCOCC4)cc3)ccc2c1)N[*:1])[*:2]; Me3N+(CH2)2O(CH2)2O(CH2)2CO = C[N+](C)(C)CCOCCOCCC(=O)*; NH(CH2CH2O)2CH2CH2NMe3+ = C[N+](C)(C)CCOCCOCCN*; 2Nal(6-OH) = N[C@@H](Cc1ccc2cc(O)ccc2c1)C(=O)O; Trp(7-Me) = Cc1cccc2c(C[C@H](N)C(=O)O)c[nH]c12; Abu(4-yl) = O=C([C@H](CC[*:3])N[*:1])[*:2]; C18 diacid = O=C(O)CCCCCCCCCCCCCCCCC(=O)*; 3Pal(5-Me) = Cc1cncc(C[C@H](N)C(=O)O)c1; Dab(NMeAc) = CC(=O)N(C)CC[C@H](N)C(=O)O; γGlu = O=C(O)[C@H](CCC(=O)[*:2])N[*:1]; X9 = CN(CC*)C(=O)CCOCCOCC[N+](C)(C)C; AEF = NCCOc1ccc(C[C@H](N)C(=O)O)cc1; 3Pal = N[C@@H](Cc1cccnc1)C(=O)O; Ethyl(2-guanidino) = N=C(N)NCC*; Lys(Me) = CNCCCC[C@H](N)C(=O)O; Pen = CC(C)(S)[C@H](N)C(=O)O; Thp = NC1(C(=O)O)CCOCC1; AEEA = NCCOCCOCC(=O)O; Ava = NCCCCC(=O)O; Sar = CNCC(=O)O

Tests used:
IL-23R = target: T1, IL-23R (Homo sapiens, UniProt Q5VWK5); assay: IL23R Reporter Assay; format: cell-based; settings: HEK293 cells containing IL-23R, IL-12Rβ1 and STAT-inducible luciferase reporter; 10 ng/mL IL-23; 5 h; read-out: IC50
T1 construct: host or cells: HEK293
T1 sequence (Q5VWK5 24-629): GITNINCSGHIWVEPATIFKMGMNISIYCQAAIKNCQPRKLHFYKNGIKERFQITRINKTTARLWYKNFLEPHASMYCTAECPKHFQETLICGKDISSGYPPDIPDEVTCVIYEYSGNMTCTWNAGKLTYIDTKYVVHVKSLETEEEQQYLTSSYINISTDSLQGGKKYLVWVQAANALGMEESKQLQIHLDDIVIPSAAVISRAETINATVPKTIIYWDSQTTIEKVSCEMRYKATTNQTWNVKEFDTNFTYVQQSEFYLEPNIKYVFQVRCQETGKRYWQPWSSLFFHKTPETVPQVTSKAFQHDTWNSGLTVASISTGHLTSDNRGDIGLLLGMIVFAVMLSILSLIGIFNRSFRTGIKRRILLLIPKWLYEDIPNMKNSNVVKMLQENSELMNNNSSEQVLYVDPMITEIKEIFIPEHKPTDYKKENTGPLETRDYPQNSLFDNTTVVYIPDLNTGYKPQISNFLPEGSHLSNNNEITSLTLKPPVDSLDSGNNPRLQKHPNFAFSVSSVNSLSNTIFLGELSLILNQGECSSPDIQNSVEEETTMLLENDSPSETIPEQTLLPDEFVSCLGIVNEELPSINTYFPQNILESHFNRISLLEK
Experimental: Compounds were serially diluted in 100% (v/v) DMSO) and plated using an Echo acoustic dispenser (Labcyte) into 1536-well non-treated black assay plates (Corning #9146). […] After 5 h at 37° C., 5% CO2, 95% relative humidity, cells were placed at 20° C. and treated with BioGlo reagent (Promega) according to the Manufacturer's instructions. Luminescence was measured on a Pherastar FSX (BMG LabTech).

[1] = target: T2, IL-23-stimulated phosphorylated STAT3 in peripheral blood mononuclear cells (PBMCs) (Homo sapiens, UniProt Q5VWK5); assay: PBMC pSTAT3 Assay; format: cell-based; settings: PBMCs from healthy donors, IL-23 5 ng/mL, 30 minutes, read-out: PBMC pSTAT3 IC50
T2 sequence (Q5VWK5 24-629): T1 sequence (Q5VWK5 24-629)
Experimental: Cryopreserved peripheral blood mononuclear cells (PBMCs) from healthy donors were thawed and washed twice in ImmunoCult-XF T cell expansion medium (XF-TCEM) supplemented with CTL anti-aggregate wash. The cells were counted, resuspended at 2-6×10^5 cells per mL XF-TCEM supplemented with penicillin/streptomycin and 100 ng/mL IL-1β (BioLegend, 579404), and cultured in tissue culture flasks coated with anti-CD3 (eBioscience, 16-0037-85 or BD Pharmingen, 555329) at 37° C. in 5% CO2. On day 4 of culture, PBMCs were collected, washed twice in RPMI-1640 supplemented with 0.1% BSA (RPMI-BSA), and incubated in RPMI-BSA in upright tissue culture flasks for ˜4 hours at 37° C. in 5% CO2. Following this ‘starvation,’ a total of 6×10^4 cells in 30 μL RPMI-BSA was transferred into each well of a 384-well plate pre-spotted with peptide or DMSO. The cells were incubated for 30 minutes prior to the addition of IL-23 at a final concentration of 5 ng/mL. The cells were stimulated with cytokine for 30 minutes at 37° C. in 5% CO2, transferred onto ice for 10 minutes, and lysed. Cell lysates were stored at −80° C. until phosphorylated STAT3 was measured using the phospho-STAT panel kit (Meso Scale Discovery, K15202D).

| Compound | IC50 (IL-23R) [nM] | IC50 [1] [nM] |
| --- | --- | --- |
| C[C@@H](O)[C@@H]1NC(=O)[C@H](CC(N)=O)NC(=O)[C@@H]2CCSC[C@H](NC(=O)[C@H](CCC(N)=O)NC(=O)[C@H](Cc3c[nH]c4ccccc34)NC1=O)C(=O)N[C@@H](Cc1ccc(OCCN)cc1)C(=O)N[C@@H](Cc1ccc3cc(O)ccc3c1)C(=O)NC1(CCOCC1)C(=O)N[C@H](C(=O)N[C@@H](CC(N)=O)C(=O)N[C@@H](Cc1cccnc1)C(=O)N(C)CC(N)=O)CCC(=O)NCCCCC(=O)N2 [compound 172] ([Ava][Abu(4-yl)]NTWQC[AEF][2Nal(6-OH)][Thp]EN[3Pal][Sar]-NH2; thioether 2-7; lactam N-11) | < 10 | < 0.01 |
| CC(=O)NCCCC[C@@H]1NC(=O)[C@H](Cc2c[nH]c3c(C)cccc23)NC(=O)[C@H]([C@@H](C)O)NC(=O)[C@@H]2CCCCNCCOc3ccc(cc3)C[C@@H](C(=O)N[C@@H](Cc3ccc4cc(O)ccc4c3)C(=O)NC3(C(=O)N[C@@H](CCCCNC(C)=O)C(=O)N[C@@H](CC(N)=O)C(=O)N[C@@H](Cc4cccnc4)C(=O)N(C)CC(N)=O)CCOCC3)NC(=O)[C@@H](NC1=O)C(C)(C)SSC(C)(C)[C@H](NC(=O)CCCCC[N+](C)(C)C)C(=O)N2 [compound 112, 5cpaCO-Pen(3)-K(5)-T-7MeW-K(Ac)-Pen(3)-AEF(5)-6OH2Nal-THP-K(Ac)-N-3Pya-Sar-CONH2] | < 10 | < 0.01 |
| CC(=O)NCCCC[C@@H]1NC(=O)[C@H](Cc2c[nH]c3c(-c4cccc(NC(C)=O)c4)cccc23)NC(=O)[C@H]([C@@H](C)O)NC(=O)[C@H](CC(N)=O)NC(=O)[C@@H](NC(=O)[C@@H](CCCNC(=N)N)NC(C)=O)C(C)(C)SSC(C)(C)[C@@H](C(=O)N[C@@H](Cc2ccc(OCCNC(=N)N)cc2)C(=O)N[C@@H](Cc2ccc3cc(O)ccc3c2)C(=O)NC2(C(=O)N[C@@H](CCC(=O)O)C(=O)N[C@@H](CC(N)=O)C(=O)N[C@@H](Cc3cncc(C)c3)C(=O)N(C)CC(N)=O)CCOCC2)NC1=O [compound 15, MeCO-r-Pen(3)-N-T-7(3NAcPh)W-K(Ac)-Pen(3)-AEF(G)-6OH2Nal-THP-E-N-5MePyridinAla-Sar-CONH2] (Ac-[dR][Pen]NT[Trp(7-(3-AcNH-Ph))]K(Ac)[Pen]Y(Ethyl(2-guanidino))[2Nal(6-OH)][Thp]EN[3Pal(5-Me)][Sar]-NH2; disulfide 2-7) | < 10 | < 0.01 |
| CC(=O)NCCCC[C@@H]1NC(=O)[C@H](Cc2c[nH]c3c(C)cccc23)NC(=O)[C@H]([C@@H](C)O)NC(=O)[C@@H]2CCC(=O)NCCOc3ccc(cc3)C[C@@H](C(=O)N[C@@H](Cc3ccc4cc(O)ccc4c3)C(=O)NC3(C(=O)N[C@@H](CCCCNC(C)=O)C(=O)N[C@@H](CC(N)=O)C(=O)N[C@@H](Cc4cccnc4)C(=O)N(C)CC(N)=O)CCOCC3)NC(=O)[C@@H](NC1=O)C(C)(C)SSC(C)(C)[C@H](NC(C)=O)C(=O)N2 [SEQ ID NO: 414, MeCO-Pen(3)-E(2)-T-7MeW-K(Ac)-Pen(3)-AEF(2)-6OH2Nal-THP-K(Ac)-N-3Pya-Sar-CONH2] (Ac-[Pen]ET[Trp(7-Me)]K(Ac)[Pen][AEF][2Nal(6-OH)][Thp]K(Ac)N[3Pal][Sar]-NH2; disulfide 1-6; lactam 2-7) | < 10 | < 0.01 |

Further lines, results first:

| IC50 (IL-23R) [nM] | IC50 [1] [nM] | Compound |
| --- | --- | --- |
| < 10 | < 0.01 | CC(=O)NCCCC[C@@H]1NC(=O)[C@H](Cc2c[nH]c3c(C)cccc23)NC(=O)[C@H]([C@@H](C)O)NC(=O)[C@H](CC(N)=O)NC(=O)[C@@H]2CCSC[C@H](NC1=O)C(=O)N[C@@H](Cc1ccc(OCCN)cc1)C(=O)N[C@@H](Cc1ccc3cc(O)ccc3c1)C(=O)NC1(CCOCC1)C(=O)N[C@H](C(=O)N[C@@H](CC(N)=O)C(=O)N[C@@H](Cc1cccnc1)C(=O)N(C)CC(N)=O)CCC(=O)NCCCCC(=O)N2 [compound 171] ([Ava][Abu(4-yl)]NT[Trp(7-Me)]K(Ac)C[AEF][2Nal(6-OH)][Thp]EN[3Pal][Sar]-NH2; thioether 2-7; lactam N-11) |
| < 10 | < 0.01 | CC(=O)N(C)CCCC[C@@H]1NC(=O)[C@H](Cc2c[nH]c3c(C)cccc23)NC(=O)[C@H]([C@@H](C)O)NC(=O)[C@H](CC(=O)N(C)C)NC(=O)[C@@H](NC(=O)CCOCCOCC[N+](C)(C)C)C(C)(C)SSC(C)(C)[C@@H](C(=O)N[C@@H](Cc2ccc(OCCN)cc2)C(=O)N[C@@H](Cc2ccc3cc(O)ccc3c2)C(=O)NC2(C(=O)N[C@@H](CCN(C)C(C)=O)C(=O)N[C@@H](CC(N)=O)C(=O)N[C@@H](Cc3cccnc3)C(=O)N(C)CC(=O)N(C)C)CCOCC2)NC1=O [compound 371, cPEG3aCO-Pen(3)-N(N(Me)2)-T-7MeW-K(NMeAc)-Pen(3)-AEF-6OH2Nal-THP-Dab(NMeAc)-N-3Pya-Sar-CON(Me)2] ({Me3N+(CH2)2O(CH2)2O(CH2)2CO}-[Pen]D(NMe2)T[Trp(7-Me)][Lys(Me)](Ac)[Pen][AEF][2Nal(6-OH)][Thp][Dab(NMeAc)]N[3Pal][Sar]-NMe2; disulfide 1-6) |
| < 10 | 0.01 to 0.1 | CC(=O)N[C@@H]1C(=O)N[C@@H](CC(=O)N(C)C)C(=O)N[C@@H]([C@@H](C)O)C(=O)N[C@@H](Cc2c[nH]c3c(C)cccc23)C(=O)N[C@@H](CCCCN(C)C(C)=O)C(=O)N[C@H](C(=O)N[C@@H](Cc2ccc(OCCN(C)C(=O)CCOCCOCC[N+](C)(C)C)cc2)C(=O)N[C@@H](Cc2ccc3cc(O)ccc3c2)C(=O)NC2(C(=O)N[C@@H](CCCCN(C)C(C)=O)C(=O)N[C@@H](CC(N)=O)C(=O)N[C@@H](Cc3cccnc3)C(=O)N(C)CC(=O)NCCOCCOCC[N+](C)(C)C)CCOCC2)C(C)(C)SSC1(C)C [compound 315, MeCO-Pen(3)-N(NMe2)-T-7MeW-K(NMeAc)-Pen(3)-AEF(NMePEG3a)-6OH2Nal-THP-K(NMeAc)-N-3Pya-Sar-CONH(PEG3a)] (Ac-[Pen]D(NMe2)T[Trp(7-Me)][Lys(Me)](Ac)[Pen]Y(X9)[2Nal(6-OH)][Thp][Lys(Me)](Ac)N[3Pal][Sar]-{NH(CH2CH2O)2CH2CH2NMe3+}; disulfide 1-6) |
| 10 to 100 | 0.01 to 0.1 | CC(=O)NCCCC[C@@H]1NC(=O)[C@H](Cc2c[nH]c3c(C)cccc23)NC(=O)[C@H]([C@@H](C)O)NC(=O)[C@H](CC(N)=O)NC(=O)[C@@H](NC(C)=O)C(C)(C)SSC(C)(C)[C@@H](C(=O)N[C@@H](Cc2ccc(OCCN)cc2)C(=O)N[C@@H](Cc2ccc3cc(O)ccc3c2)C(=O)NC2(C(=O)N[C@@H](CCCCNC(=O)COCCOCCNC(=O)COCCOCCNC(=O)CC[C@H](NC(=O)CCCCCCCCCCCCCCCCC(=O)O)C(=O)O)C(=O)N[C@@H](CC(N)=O)C(=O)N[C@@H](Cc3cccnc3)C(=O)N(C)CC(N)=O)CCOCC2)NC1=O [SEQ ID NO: 273, MeCO-Pen(3)-N-T-7MeW-K(Ac)-Pen(3)-AEF-6OH2Nal-THP-K(PEG2PEG2gEC18OH)-N-3Pya-Sar-CONH2] (Ac-[Pen]NT[Trp(7-Me)]K(Ac)[Pen][AEF][2Nal(6-OH)][Thp]K([AEEA-AEEA-γGlu-C18 diacid])N[3Pal][Sar]-NH2; disulfide 1-6) |
| > 100 | – | CC(=O)NCCCC[C@@H]1NC(=O)[C@H](Cc2c[nH]c3c(C)cccc23)NC(=O)[C@H]([C@@H](C)O)NC(=O)[C@H](CC(N)=O)NC(=O)[C@@H](NC(=O)[C@@H](CCCNC(=N)N)NC(C)=O)C(C)(C)SSC(C)(C)[C@@H](C(=O)N[C@@H](Cc2ccc(OCCN)cc2)C(=O)N[C@@H](Cc2ccc3cc(-c4ccc(N5CCOCC5)cc4)ccc3c2)C(=O)NC2(C(=O)N[C@@H](CCC(=O)O)C(=O)N[C@@H](CC(N)=O)C(=O)NC3(C(N)=O)CCOCC3)CCOCC2)NC1=O [SEQ ID NO: 432, MeCO-r-Pen(3)-N-T-7MeW-K(Ac)-Pen(3)-AEF-2Nal6(Ph4(NMorph))-THP-E-N-THP-CONH2] (Ac-[dR][Pen]NT[Trp(7-Me)]K(Ac)[Pen][AEF][X4][Thp]EN[Thp]-NH2; disulfide 2-7) |
